Test system: KRAS PDC multicell spheroid viability
Experiment: Anticancer human tumor 521955-158-R6-J3-PDC patient-derived pancreatic carcinoma cell line growth inhibition [KRAS2]
Conditions: for IC50: curve of first compound; for viability, T/C: stronger effect = lower value
Procedure, shortened: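 Combination screen of spheroid viability in tumor-cell co-cultures with endothelial (HUVEC) and mesenchymal stem cell stroma. Each agent was tested in half-log dilutions, topping at clinical Cmax or at 10 microM without a known Cmax.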

[1] = second compound 0.1 µM, first compound 0.0316 µM
[2] = second compound 0.316 µM, first compound 0.0316 µM
[3] = second compound 1 µM, first compound 0.0316 µM
[4] = second compound 3.16 µM, first compound 0.0316 µM
[5] = second compound 10 µM, first compound 0.0316 µM
[6] = second compound 0.0316 µM, first compound 0.0316 µM
[7] = second compound 0.0316 µM, first compound 0.1 µM
[8] = second compound 0.0316 µM, first compound 0.316 µM
[9] = second compound 0.0316 µM, first compound 1 µM
[10] = second compound 0.0316 µM, first compound 3.16 µM
[11] = second compound 0.0316 µM, first compound 10 µM
[12] = second compound 0.1 µM, first compound 0.1 µM
[13] = second compound 0.1 µM, first compound 0.316 µM
[14] = second compound 0.1 µM, first compound 1 µM
[15] = second compound 0.1 µM, first compound 3.16 µM
[16] = second compound 0.1 µM, first compound 10 µM
[17] = second compound 0.316 µM, first compound 0.1 µM
[18] = second compound 0.316 µM, first compound 0.316 µM
[19] = second compound 0.316 µM, first compound 1 µM
[20] = second compound 0.316 µM, first compound 3.16 µM
[21] = second compound 0.316 µM, first compound 10 µM
[22] = second compound 1 µM, first compound 0.1 µM
[23] = second compound 1 µM, first compound 0.316 µM
[24] = second compound 1 µM, first compound 1 µM
[25] = second compound 1 µM, first compound 3.16 µM
[26] = second compound 1 µM, first compound 10 µM
[27] = second compound 3.16 µM, first compound 0.1 µM
[28] = second compound 3.16 µM, first compound 0.316 µM
[29] = second compound 3.16 µM, first compound 1 µM
[30] = second compound 3.16 µM, first compound 3.16 µM
[31] = second compound 3.16 µM, first compound 10 µM
[32] = second compound 10 µM, first compound 0.1 µM
[33] = second compound 10 µM, first compound 0.316 µM
[34] = second compound 10 µM, first compound 1 µM
[35] = second compound 10 µM, first compound 3.16 µM
[36] = second compound 10 µM, first compound 10 µM
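Further: drug exposure lasted seven days.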
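Wherever viability, T/C is given: 100% = DMSO vehicle wells and lower means fewer viable cells.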

## CC(=O)Nc1cccc(-n2c(=O)n(C3CC3)c(=O)c3c(Nc4ccc(I)cc4F)n(C)c(=O)c(C)c32)c1 + C=CC(=O)N1CCN(c2nc(=O)n(-c3c(C)ccnc3C(C)C)c3nc(-c4c(O)cccc4F)c(F)cc23)C(C)C1
Second compound 0.1 µM
  IC50: 0.0255 µM
Second compound 0.316 µM
  IC50: > 0.0316 µM
Second compound 1 µM
  IC50: > 0.0316 µM
Second compound 3.16 µM
  IC50: > 0.0316 µM
Second compound 10 µM
  IC50: 0.00858 µM
Second compound 0.1 µM, first compound 0.0001 µM
  viability, T/C: 97.7%
Second compound 0.1 µM, first compound 0.000316 µM
  viability, T/C: 96.3%
Second compound 0.1 µM, first compound 0.001 µM
  viability, T/C: 92%
Second compound 0.1 µM, first compound 0.00316 µM
  viability, T/C: 88.1%
Second compound 0.1 µM, first compound 0.01 µM
  viability, T/C: 69.1%
[1]
  viability, T/C: 45.2%
Second compound 0.316 µM, first compound 0.0001 µM
  viability, T/C: 107%
Second compound 0.316 µM, first compound 0.000316 µM
  viability, T/C: 99.1%
Second compound 0.316 µM, first compound 0.001 µM
  viability, T/C: 95.4%
Second compound 0.316 µM, first compound 0.00316 µM
  viability, T/C: 83.7%
Second compound 0.316 µM, first compound 0.01 µM
  viability, T/C: 72.8%
[2]
  viability, T/C: 50.5%
Second compound 1 µM, first compound 0.0001 µM
  viability, T/C: 102%
Second compound 1 µM, first compound 0.000316 µM
  viability, T/C: 99.9%
Second compound 1 µM, first compound 0.001 µM
  viability, T/C: 98.5%
Second compound 1 µM, first compound 0.00316 µM
  viability, T/C: 88.1%
Second compound 1 µM, first compound 0.01 µM
  viability, T/C: 83.4%
[3]
  viability, T/C: 51%
Second compound 3.16 µM, first compound 0.0001 µM
  viability, T/C: 84.4%
Second compound 3.16 µM, first compound 0.000316 µM
  viability, T/C: 92.2%
Second compound 3.16 µM, first compound 0.001 µM
  viability, T/C: 91.9%
Second compound 3.16 µM, first compound 0.00316 µM
  viability, T/C: 90.7%
Second compound 3.16 µM, first compound 0.01 µM
  viability, T/C: 71.6%
[4]
  viability, T/C: 52.2%
Second compound 10 µM, first compound 0.0001 µM
  viability, T/C: 64.4%
Second compound 10 µM, first compound 0.000316 µM
  viability, T/C: 69.8%
Second compound 10 µM, first compound 0.001 µM
  viability, T/C: 58.4%
Second compound 10 µM, first compound 0.00316 µM
  viability, T/C: 58.4%
Second compound 10 µM, first compound 0.01 µM
  viability, T/C: 46.3%
[5]
  viability, T/C: 41%

## COc1cc(Nc2ncc3c(n2)-c2ccc(Cl)cc2C(c2c(F)cccc2OC)=NC3)ccc1C(=O)O + C=CC(=O)N1CCN(c2nc(OCC3CCCN3C)nc3c2CCN(c2cccc4cccc(C)c24)C3)CC1CC#N
Second compound 0.0316 µM
  IC50: > 10 µM
Second compound 0.1 µM
  IC50: > 10 µM
Second compound 0.316 µM
  IC50: > 10 µM
Second compound 1 µM
  IC50: > 10 µM
Second compound 3.16 µM
  IC50: < 0.0316 µM
[6]
  viability, T/C: 95.3%
[7]
  viability, T/C: 86.4%
[8]
  viability, T/C: 87.3%
[9]
  viability, T/C: 88.1%
[10]
  viability, T/C: 89.5%
[11]
  viability, T/C: 83.6%
[1]
  viability, T/C: 92.2%
[12]
  viability, T/C: 91%
[13]
  viability, T/C: 87.7%
[14]
  viability, T/C: 91%
[15]
  viability, T/C: 92%
[16]
  viability, T/C: 97.9%
[2]
  viability, T/C: 86.2%
[17]
  viability, T/C: 87.4%
[18]
  viability, T/C: 79.8%
[19]
  viability, T/C: 78.1%
[20]
  viability, T/C: 85.9%
[21]
  viability, T/C: 86.4%
[3]
  viability, T/C: 78%
[22]
  viability, T/C: 66%
[23]
  viability, T/C: 82.2%
[24]
  viability, T/C: 76.1%
[25]
  viability, T/C: 82.7%
[26]
  viability, T/C: 77.3%
[4]
  viability, T/C: 25.6%
[27]
  viability, T/C: 25.7%
[28]
  viability, T/C: 18.3%
[29]
  viability, T/C: 53.4%
[30]
  viability, T/C: 59.4%
[31]
  viability, T/C: 29.2%

## CC1OCC2(CCN(c3cnc(Sc4ccnc(N)c4Cl)c(N)n3)CC2)C1N (stereo not given) + CNCc1ccccc1-c1csc(C(C)Nc2nc(C)nc3cc(OC)c(OC)cc23)c1
Second compound 0.1 µM
  IC50: > 10 µM
Second compound 0.316 µM
  IC50: > 10 µM
Second compound 1 µM
  IC50: > 10 µM
Second compound 3.16 µM
  IC50: < 0.0316 µM
Second compound 10 µM
  IC50: < 0.0316 µM
[1]
  viability, T/C: 83.1%
[12]
  viability, T/C: 73.2%
[13]
  viability, T/C: 73.5%
[14]
  viability, T/C: 81.8%
[15]
  viability, T/C: 105%
[16]
  viability, T/C: 100%
[2]
  viability, T/C: 83.7%
[17]
  viability, T/C: 80.3%
[18]
  viability, T/C: 70%
[19]
  viability, T/C: 72.7%
[20]
  viability, T/C: 92.2%
[21]
  viability, T/C: 105%
[3]
  viability, T/C: 67.3%
[22]
  viability, T/C: 67%
[23]
  viability, T/C: 66.5%
[24]
  viability, T/C: 72%
[25]
  viability, T/C: 90%
[26]
  viability, T/C: 67.3%
[4]
  viability, T/C: 0.42%
[27]
  viability, T/C: 0.24%
[28]
  viability, T/C: 0.25%
[29]
  viability, T/C: 0.33%
[30]
  viability, T/C: 1.07%
[31]
  viability, T/C: 0.41%
[5]
  viability, T/C: 0.23%
[32]
  viability, T/C: 0.26%
[33]
  viability, T/C: 0.26%
[34]
  viability, T/C: 0.17%
[35]
  viability, T/C: 0.22%
[36]
  viability, T/C: 0.27%

## CC(C)NCC(C(=O)N1CCN(c2ncnc3c2C(C)CC3O)CC1)c1ccc(Cl)cc1 (stereo not given) + COc1cc2nc(C)nc(NC(C)c3cc(N)cc(C(F)(F)F)c3)c2cc1OC1CCOC1
Second compound 0.1 µM
  IC50: > 10 µM
Second compound 0.316 µM
  IC50: > 10 µM
Second compound 1 µM
  IC50: > 10 µM
Second compound 3.16 µM
  IC50: > 10 µM
Second compound 10 µM
  IC50: < 0.0316 µM
[1]
  viability, T/C: 96.1%
[12]
  viability, T/C: 90.2%
[13]
  viability, T/C: 76.1%
[14]
  viability, T/C: 84.9%
[15]
  viability, T/C: 72.8%
[16]
  viability, T/C: 71.8%
[2]
  viability, T/C: 83.8%
[17]
  viability, T/C: 79%
[18]
  viability, T/C: 75.7%
[19]
  viability, T/C: 70.3%
[20]
  viability, T/C: 77.7%
[21]
  viability, T/C: 64.6%
[3]
  viability, T/C: 82.3%
[22]
  viability, T/C: 83.8%
[23]
  viability, T/C: 73.5%
[24]
  viability, T/C: 69.2%
[25]
  viability, T/C: 70.5%
[26]
  viability, T/C: 59.6%
[4]
  viability, T/C: 63.3%
[27]
  viability, T/C: 62.1%
[28]
  viability, T/C: 67.2%
[29]
  viability, T/C: 63.7%
[30]
  viability, T/C: 72.1%
[31]
  viability, T/C: 67.7%
[5]
  viability, T/C: 44.1%
[32]
  viability, T/C: 40.2%
[33]
  viability, T/C: 46.1%
[34]
  viability, T/C: 28.4%
[35]
  viability, T/C: 27.1%
[36]
  viability, T/C: 16.7%

## CC1OCC2(CCN(c3cnc(Sc4ccnc(N)c4Cl)c(N)n3)CC2)C1N (stereo not given) + C=CC(=O)N1CCN(c2nc(OCC3CCCN3C)nc3c2CCN(c2cccc4cccc(C)c24)C3)CC1CC#N
Second compound 0.0316 µM
  IC50: > 10 µM
Second compound 0.1 µM
  IC50: > 10 µM
Second compound 0.316 µM
  IC50: > 10 µM
Second compound 1 µM
  IC50: > 10 µM
Second compound 3.16 µM
  IC50: < 0.0316 µM
[6]
  viability, T/C: 88.4%
[7]
  viability, T/C: 103%
[8]
  viability, T/C: 92.2%
[9]
  viability, T/C: 96%
[10]
  viability, T/C: 114%
[11]
  viability, T/C: 109%
[1]
  viability, T/C: 92.7%
[12]
  viability, T/C: 97.4%
[13]
  viability, T/C: 84.2%
[14]
  viability, T/C: 86.1%
[15]
  viability, T/C: 114%
[16]
  viability, T/C: 114%
[2]
  viability, T/C: 87.5%
[17]
  viability, T/C: 86.1%
[18]
  viability, T/C: 85%
[19]
  viability, T/C: 90.4%
[20]
  viability, T/C: 101%
[21]
  viability, T/C: 106%
[3]
  viability, T/C: 75.7%
[22]
  viability, T/C: 68.7%
[23]
  viability, T/C: 64.9%
[24]
  viability, T/C: 67.4%
[25]
  viability, T/C: 90.2%
[26]
  viability, T/C: 113%
[4]
  viability, T/C: 40.8%
[27]
  viability, T/C: 32.3%
[28]
  viability, T/C: 25.2%
[29]
  viability, T/C: 37.3%
[30]
  viability, T/C: 28.9%
[31]
  viability, T/C: 23.7%

From PubChem BioAssay AID1963864 (Molecular Pharmacology Branch, DTP, NCI, 2024)
